Results taken from ChEMBL document CHEMBL2380212, “Synthesis, single crystal and antitumor activities of benzimidazole-quinazoline hybrids” (Bioorg Med Chem Lett, 2013).

What was measured:
Assay type in all cases: functional
BT-549 = assay: Cytotoxicity against human BT549 cells at 10 uM after 48 hrs by SRB assay; details: BT-549, 48 h, read-out: GI
T47D = assay: Cytotoxicity against human T47D cells at 10 uM after 48 hrs by SRB assay; details: read-out: GI
MCF7 = assay: Cytotoxicity against human MCF7 cells at 10 uM after 48 hrs by SRB assay; details: MCF7, 48 h, read-out: GI
MDA-MB-231 = assay: Cytotoxicity against human MDA-MB-231 cells at 10 uM after 48 hrs by SRB assay; details: MDA-MB-231, 48 h, read-out: GI
DU-145 = assay: Cytotoxicity against human DU145 cells at 10 uM after 48 hrs by SRB assay; details: DU-145, 48 h, read-out: GI
UO-31 = assay: Cytotoxicity against human UO31 cells at 10 uM after 48 hrs by SRB assay; details: UO-31, 48 h, read-out: GI
PC-3 = assay: Cytotoxicity against human PC3 cells at 10 uM after 48 hrs by SRB assay; details: PC-3, 48 h, read-out: GI
TK-10 = assay: Cytotoxicity against human TK10 cells at 10 uM after 48 hrs by SRB assay; details: TK-10, 48 h, read-out: GI
RXF 393 = assay: Cytotoxicity against human RXF393 cells at 10 uM after 48 hrs by SRB assay; details: RXF 393, 48 h, read-out: GI
SN12C = assay: Cytotoxicity against human SN12C cells at 10 uM after 48 hrs by SRB assay; details: read-out: GI
CAKI-1 = assay: Cytotoxicity against human Caki1 cells at 10 uM after 48 hrs by SRB assay; details: CAKI-1, 48 h, read-out: GI
ACHN = assay: Cytotoxicity against human ACHN cells at 10 uM after 48 hrs by SRB assay; details: read-out: GI
786-0 = assay: Cytotoxicity against human 786-0 cells at 10 uM after 48 hrs by SRB assay; details: 786-0, 48 h, read-out: GI
SK-OV-3 = assay: Cytotoxicity against human SKOV3 cells at 10 uM after 48 hrs by SRB assay; details: SK-OV-3, 48 h, read-out: GI
NCI/ADR-RES = assay: Cytotoxicity against human NCI/ADR-RES cells at 10 uM after 48 hrs by SRB assay; details: read-out: GI
OVCAR-5 = assay: Cytotoxicity against human OVCAR5 cells at 10 uM after 48 hrs by SRB assay; details: OVCAR-5, 48 h, read-out: GI
OVCAR-4 = assay: Cytotoxicity against human OVCAR4 cells at 10 uM after 48 hrs by SRB assay; details: OVCAR-4, 48 h, read-out: GI
OVCAR-3 = assay: Cytotoxicity against human OVCAR3 cells at 10 uM after 48 hrs by SRB assay; details: OVCAR-3, 48 h, read-out: GI
IGROV-1 = assay: Cytotoxicity against human IGROV1 cells at 10 uM after 48 hrs by SRB assay; details: IGROV-1, 48 h, read-out: GI
UACC-62 = assay: Cytotoxicity against human UACC62 cells at 10 uM after 48 hrs by SRB assay; details: UACC-62, 48 h, read-out: GI
UACC-257 = assay: Cytotoxicity against human UACC257 cells at 10 uM after 48 hrs by SRB assay; details: UACC-257, 48 h, read-out: GI
SK-MEL-5 = assay: Cytotoxicity against human SK-MEL-5 cells at 10 uM after 48 hrs by SRB assay; details: SK-MEL-5, 48 h, read-out: GI
SK-MEL-2 = assay: Cytotoxicity against human SK-MEL-2 cells at 10 uM after 48 hrs by SRB assay; details: SK-MEL-2, 48 h, read-out: GI
MDA-MB-435 = assay: Cytotoxicity against human MDA-MB-435 cells at 10 uM after 48 hrs by SRB assay; details: MDA-MB-435, 48 h, read-out: GI
Malme-3M = assay: Cytotoxicity against human MALME-3M cells at 10 uM after 48 hrs by SRB assay; details: read-out: GI
U-251 = assay: Cytotoxicity against human U251 cells at 10 uM after 48 hrs by SRB assay; details: U-251, 48 h, read-out: GI
LOX IMVI = assay: Cytotoxicity against human LOXIMVI cells at 10 uM after 48 hrs by SRB assay; details: read-out: GI
SNB-75 = assay: Cytotoxicity against human SNB75 cells at 10 uM after 48 hrs by SRB assay; details: SNB-75, 48 h, read-out: GI
SNB-19 = assay: Cytotoxicity against human SNB19 cells at 10 uM after 48 hrs by SRB assay; details: SNB-19, 48 h, read-out: GI
SF-295 = assay: Cytotoxicity against human SF295 cells at 10 uM after 48 hrs by SRB assay; details: SF-295, 48 h, read-out: GI
SF-268 = assay: Cytotoxicity against human SF268 cells at 10 uM after 48 hrs by SRB assay; details: SF-268, 48 h, read-out: GI
SW-620 = assay: Cytotoxicity against human SW620 cells at 10 uM after 48 hrs by SRB assay; details: SW-620, 48 h, read-out: GI
KM12 = assay: Cytotoxicity against human KM12 cells at 10 uM after 48 hrs by SRB assay; details: KM12, 48 h, read-out: GI
HT-29 = assay: Cytotoxicity against human HT-29 cells at 10 uM after 48 hrs by SRB assay; details: HT-29, 48 h, read-out: GI
HCT-15 = assay: Cytotoxicity against human HCT15 cells at 10 uM after 48 hrs by SRB assay; details: HCT-15, 48 h, read-out: GI
HCT-116 = assay: Cytotoxicity against human HCT116 cells at 10 uM after 48 hrs by SRB assay; details: HCT-116, 48 h, read-out: GI
COLO 205 = assay: Cytotoxicity against human COLO205 cells at 10 uM after 48 hrs by SRB assay; details: COLO 205, 48 h, read-out: GI
NCI-H522 = assay: Cytotoxicity against human NCI-H522 cells at 10 uM after 48 hrs by SRB assay; details: NCI-H522, 48 h, read-out: GI
NCI-H460 = assay: Cytotoxicity against human NCI-H460 cells at 10 uM after 48 hrs by SRB assay; details: NCI-H460, 48 h, read-out: GI
NCI-H322M = assay: Cytotoxicity against human NCI-H322M cells at 10 uM after 48 hrs by SRB assay; details: read-out: GI
NCI-H226 = assay: Cytotoxicity against human NCI-H226 cells at 10 uM after 48 hrs by SRB assay; details: NCI-H226, 48 h, read-out: GI
NCI-H23 = assay: Cytotoxicity against human NCI-H23 cells at 10 uM after 48 hrs by SRB assay; details: NCI-H23, 48 h, read-out: GI
HOP-62 = assay: Cytotoxicity against human HOP62 cells at 10 uM after 48 hrs by SRB assay; details: HOP-62, 48 h, read-out: GI
HOP-92 = assay: Cytotoxicity against human HOP92 cells at 10 uM after 48 hrs by SRB assay; details: HOP-92, 48 h, read-out: GI
[1] = Cytotoxicity against human EKVX cells at 10 uM after 48 hrs by SRB assay; details: read-out: GI
A549 = assay: Cytotoxicity against human A549 cells at 10 uM after 48 hrs by SRB assay; details: A549, 48 h, read-out: GI
SR = assay: Cytotoxicity against human SR cells at 10 uM after 48 hrs by SRB assay; details: read-out: GI
MOLT-4 = assay: Cytotoxicity against human MOLT4 cells at 10 uM after 48 hrs by SRB assay; details: MOLT-4, 48 h, read-out: GI
RPMI-8226 = assay: Cytotoxicity against human RPMI8226 cells at 10 uM after 48 hrs by SRB assay; details: RPMI-8226, 48 h, read-out: GI
K562 = assay: Cytotoxicity against human K562 cells at 10 uM after 48 hrs by SRB assay; details: K562, 48 h, read-out: GI
HL-60(TB) = assay: Cytotoxicity against human HL-60(TB) cells at 10 uM after 48 hrs by SRB assay; details: HL-60, 48 h, read-out: GI
CCRF-CEM = assay: Cytotoxicity against human CCRF-CEM cells at 10 uM after 48 hrs by SRB assay; details: read-out: GI

Question: With `O=c1[nH]cc(F)c(=O)[nH]1` [FLUOROURACIL] as the molecule, how does the inhibition of growth at 10 µM (BT-549) read?
Answer: 37.8%

Question: What about the inhibition of growth at 10 µM (T47D) of the same molecule?
Answer: 56.7%

Question: And the inhibition of growth at 10 µM (MCF7)?
Answer: 11.5%

Question: What about the inhibition of growth at 10 µM (MDA-MB-231) of the same molecule?
Answer: 78.1%

Question: And the inhibition of growth at 10 µM (DU-145)?
Answer: 35.5%

Question: And the inhibition of growth at 10 µM (UO-31)?
Answer: 41.3%

Question: What about the inhibition of growth at 10 µM (PC-3) of the same molecule?
Answer: 58.2%

Question: And the inhibition of growth at 10 µM (TK-10)?
Answer: 66.9%

Question: And the inhibition of growth at 10 µM (RXF 393)?
Answer: 34.3%

Question: And the inhibition of growth at 10 µM (SN12C)?
Answer: 54%

Question: What about the inhibition of growth at 10 µM (CAKI-1) of the same molecule?
Answer: 39.4%

Question: And the inhibition of growth at 10 µM (ACHN)?
Answer: 39.3%

Question: And the inhibition of growth at 10 µM (786-0)?
Answer: 48.7%

Question: What about the inhibition of growth at 10 µM (SK-OV-3) of the same molecule?
Answer: 77.5%

Question: And the inhibition of growth at 10 µM (NCI/ADR-RES)?
Answer: 47.6%

Question: What about the inhibition of growth at 10 µM (OVCAR-5) of the same molecule?
Answer: 44.3%

Question: And the inhibition of growth at 10 µM (OVCAR-4)?
Answer: 59.4%

Question: What about the inhibition of growth at 10 µM (OVCAR-3) of the same molecule?
Answer: 47.4%

Question: What about the inhibition of growth at 10 µM (IGROV-1) of the same molecule?
Answer: 51.2%

Question: What about the inhibition of growth at 10 µM (UACC-62) of the same molecule?
Answer: 39.7%

Question: What about the inhibition of growth at 10 µM (UACC-257) of the same molecule?
Answer: 19.5%

Question: And the inhibition of growth at 10 µM (SK-MEL-5)?
Answer: 33.7%

Question: And the inhibition of growth at 10 µM (SK-MEL-2)?
Answer: 95.5%

Question: And the inhibition of growth at 10 µM (MDA-MB-435)?
Answer: 36.6%

Question: And the inhibition of growth at 10 µM (Malme-3M)?
Answer: 58.2%

Question: What about the inhibition of growth at 10 µM (U-251) of the same molecule?
Answer: 50.3%

Question: And the inhibition of growth at 10 µM (LOX IMVI)?
Answer: 30.4%

Question: What about the inhibition of growth at 10 µM (SNB-75) of the same molecule?
Answer: 65.9%

Question: What about the inhibition of growth at 10 µM (SNB-19) of the same molecule?
Answer: 65.9%

Question: And the inhibition of growth at 10 µM (SF-295)?
Answer: 69.1%

Question: What about the inhibition of growth at 10 µM (SF-268) of the same molecule?
Answer: 59%

Question: What about the inhibition of growth at 10 µM (SW-620) of the same molecule?
Answer: 50.1%

Question: What about the inhibition of growth at 10 µM (KM12) of the same molecule?
Answer: 40.7%

Question: What about the inhibition of growth at 10 µM (HT-29) of the same molecule?
Answer: 27.1%

Question: And the inhibition of growth at 10 µM (HCT-15)?
Answer: 26.5%

Question: What about the inhibition of growth at 10 µM (HCT-116) of the same molecule?
Answer: 17.8%

Question: What about the inhibition of growth at 10 µM (COLO 205) of the same molecule?
Answer: 40.2%

Question: What about the inhibition of growth at 10 µM (NCI-H522) of the same molecule?
Answer: 58%

Question: And the inhibition of growth at 10 µM (NCI-H460)?
Answer: 13%

Question: What about the inhibition of growth at 10 µM (NCI-H322M) of the same molecule?
Answer: 59.5%

Question: What about the inhibition of growth at 10 µM (NCI-H226) of the same molecule?
Answer: 69.5%

Question: And the inhibition of growth at 10 µM (NCI-H23)?
Answer: 39%

Question: What about the inhibition of growth at 10 µM (HOP-62) of the same molecule?
Answer: 47.8%

Question: And the inhibition of growth at 10 µM (HOP-92)?
Answer: 50.6%

Question: And the inhibition of growth at 10 µM [1]?
Answer: 58.4%

Question: What about the inhibition of growth at 10 µM (A549) of the same molecule?
Answer: 34.2%

Question: What about the inhibition of growth at 10 µM (SR) of the same molecule?
Answer: 24.8%

Question: And the inhibition of growth at 10 µM (MOLT-4)?
Answer: 43.1%

Question: And the inhibition of growth at 10 µM (RPMI-8226)?
Answer: 41.4%

Question: What about the inhibition of growth at 10 µM (K562) of the same molecule?
Answer: 42.3%

Question: What about the inhibition of growth at 10 µM (HL-60(TB)) of the same molecule?
Answer: 47.9%

Question: What about the inhibition of growth at 10 µM (CCRF-CEM) of the same molecule?
Answer: 57.1%
